Data reported in US12617870B2, “Methods of reversing ticagrelor activity” (SFJ Pharmaceuticals X, LTD., priority 2018, dated 2026).
Values joined by “and” are separate entries in the source; they are usually repeats but may differ in a detail not shown here. Equal entries are not always repeated.

Tests used:
[1] = system: PB2452 binding to biotinylated ticagrelor; experiment: Selectivity: competition binding with PB2452 to biotinylated ticagrelor; set-up: species or system human
Experimental: The chemical starting point for the development of ticagrelor was adenosine triphosphate (ATP), and ticagrelor retains an adenosine-like core. To confirm the specificity of PB2452 for ticagrelor and ticagrelor active metabolite (TAM), its binding to ATP, ADP, and adenosine was evaluated. […] The selectivity of PB2452 was determined by competition binding with PB2452 to biotinylated ticagrelor.

[2] = PLATO, cited from earlier work; for patients with fatal or life-threatening major bleeding events: patients with ACS, both treatment groups
[3] = system: platelet aggregation (ticagrelor antiplatelet activity); format: in vivo, human; conditions: placebo subjects
Experimental: Platelet function was assessed using light transmission aggregometry (LTA), VerifyNow, and vasodilator stimulated phosphoprotein (VASP) assays before and after 48 hours of ticagrelor administration […] Cohorts 7 to 10 received an 18-gram fixed dose of PB2452 via various infusion regimens or placebo. Infusions of PB2452 in these cohorts were initiated 2 hours after the last ticagrelor pretreatment dose to coincide with the peak concentration of ticagrelor. (Gurbel (2009). Subjects in all cohorts were randomized in a 3:1 ratio to receive PB2452 or placebo. The primary efficacy outcome was the effectiveness of PB2452 in reversing the antiplatelet effect of ticagrelor by analyzing platelet aggregation using light transmission aggregometry at multiple time points before and after PB2452 or placebo administration in ticagrelor pretreated subjects. Secondary efficacy outcomes were the effectiveness of ticagrelor reversal assessed using VerifyNow and the vasodilator stimulated phosphoprotein phosphorylation immunoassay (VASP). The sample size of 64 was based on clinical and practical considerations and not on a formal statistical power calculation. The sample size was considered sufficient to adequately assess the safety, efficacy, and pharmacokinetic profiles of PB2452 and the pharmacokinetic and pharmacodynamic profiles of ticagrelor. Reversal of antiplatelet effect was evaluated by comparing the mean percent of baseline platelet aggregation between PB2452 and placebo using Wilcoxon rank-sum test. Multiplicity was adjusted using the Bonferroni method. Correlations between each pair of the platelet function tests were evaluated using Pearson's correlation and Spearman's rank correlation coefficient. Mean data from subjects receiving placebo were pooled across cohorts for all presentations. Categorical variables are summarized by their frequencies and percentages, and continuous variables are presented with the number of subjects with non-missing data, mean, standard deviation, median, minimum, and maximum. Descriptive statistics are presented for each cohort, and pooled placebo and PB2452 data. For pharmacodynamic data, platelet aggregation results were compared between each cohort and pooled placebo data (cohorts 4 to 6 and cohort 7 to 10 were pooled separately). All analyses were performed with SAS software, version 9.4 (SAS Institute).

[4] = Phase 1 healthy volunteer study: pharmacokinetics of total ticagrelor; format: in vivo, human
Experimental: Plasma samples for determining total concentration of ticagrelor and its active metabolite, TAM (or ARC-124910XX) will be collected from subjects in Cohorts 4 through 10 before dosing (within 10 minutes prior to the initiation of the study drug infusion [Hour 0], and up to 48 hours following the initiation of study drug infusion. Specific collection times for each cohort are listed in the table below: […]

Row | Compound | inhibition of PB2452 binding to biotinylated ticagrelor [1] | also measured
1 | Nc1ncnc2c1ncn2[C@@H]1O[C@H](COP(=O)(O)OP(=O)(O)O)[C@@H](O)[C@H]1O [ADP, adenosine diphosphate] | No inhibition | 
2 | Nc1ncnc2c1ncn2[C@@H]1O[C@H](COP(=O)(O)OP(=O)(O)OP(=O)(O)O)[C@@H](O)[C@H]1O [ATP, adenosine triphosphate] | No inhibition | 
3 | Nc1ncnc2c1ncn2[C@@H]1O[C@H](CO)[C@@H](O)[C@H]1O [adenosine] | No inhibition | 
4 | CCCC(=O)Nc1ncnc2c1ncn2[C@@H]1O[C@@H]2COP(=O)(O)O[C@H]2[C@H]1OC(=O)CCC [bucladesine] | No inhibition | 
5 | CSCCNc1nc(SCCC(F)(F)F)nc2c1ncn2[C@@H]1O[C@H](COP(=O)(O)OP(=O)(O)C(Cl)(Cl)P(=O)(O)O)[C@@H](O)[C@H]1O [cangrelor] | No inhibition | 
6 | O=C1CCc2cc(OCCCCc3nnnn3C3CCCCC3)ccc2N1 [cilostazol] | No inhibition | 
7 | COC(=O)[C@H](c1ccccc1Cl)N1CCc2sccc2C1 [clopidogrel] |  | patients with fatal or life-threatening major bleeding events [2]: 5.8%
8 | NS(=O)(=O)c1cc2c(cc1Cl)NC(C1CC3C=CC1C3)NS2(=O)=O (centres unmarked) [cyclothiazide] | No inhibition | 
9 | CC1(C)C(C=C(Cl)Cl)C1C(=O)OC(C#N)c1ccc(F)c(Oc2ccccc2)c1 (centres unmarked) [cyfluthrin] | No inhibition | 
10 | CC(=O)NC[C@H]1CN(c2ccc(N3CCOCC3)c(F)c2)C(=O)O1 [linezolid] | No inhibition | 
11 | CC[C@H](C)C(=O)O[C@H]1C[C@@H](C)C=C2C=C[C@H](C)[C@H](CC[C@@H]3C[C@@H](O)CC(=O)O3)[C@H]21 [lovastatin] | No inhibition | 
12 | COC(=O)C1=C(C#N)NC(C)=C(C(=O)OC(C)C)C1c1cccc([N+](=O)[O-])c1 (centres unmarked) [nilvadipine] | No inhibition | 
13 | CNC(=O)c1cnn(-c2nc(N)c3ncn([C@@H]4O[C@H](CO)[C@@H](O)[C@H]4O)c3n2)c1 [regadenoson] | No inhibition | 
14 | CCCSc1nc(N[C@@H]2C[C@H]2c2ccc(F)c(F)c2)c2nnn([C@@H]3C[C@H](OCCO)[C@@H](O)[C@H]3O)c2n1 [ticagrelor, (1S,2S,3R,5S)-3-[7-{[(1R,2S)-2-(3,4-difluorophenyl)cyclopropyl]amino}-5-(propylthio)-3H-[1,2,3]triazolo[4,5-d]pyrimidin-3-yl]-5-(2-hydroxyethoxy)cyclopentane-1,2-diol] |  | suppression of platelet aggregation ([3]; after 48 hours of ticagrelor (180 mg loading + 90 mg twice daily)): ~80% and 80-85%; platelet aggregation remained suppressed after ticagrelor was stopped [3]: 24 h; increase of mean ticagrelor concentrations compared with ticagrelor alone ([4]; PB2452 18 gram dose level with 8- to 16-hour infusions): 5.6 fold; increase of mean concentration of circulating ticagrelor ([4]; in the presence of PB2452 (Cohorts 4-6, FIG. 11B)): 2-5.6 fold; time of peak total ticagrelor concentration after an oral dose ([4]; subjects receiving ticagrelor alone): approximately 2 hours; peak total ticagrelor concentration ([4]; subjects receiving ticagrelor alone, oral dose): 900 ng/mL; patients with fatal or life-threatening major bleeding events [2]: 5.8%; patients with fatal or life-threatening bleeding event ([2]; urgent surgery, could not wait three days for ticagrelor to wash out): approximately 50%; patients with major bleeding related to procedures like CABG [2]: approximately 9%; patients with spontaneous major bleeding events not related to any medical procedure [2]: approximately 3%
